These results are taken from patent US5728684A, “Determination of prodrugs metabolizable by the liver and therapeutic use thereof” (priority 1994, dated 1998).

As a reminder, the Km is the substrate concentration at which the rate is half of its maximum. As a reminder, the LD50 is the dose expected to kill half of the subjects tested. The low end stands for a more toxic substance, the high end for a less toxic substance.

Like-named read-outs stand apart in the source and are kept apart here.

The test system of series [1] is aldehyde oxidase. To be noted: cited from earlier work.
The target in the next series is IPdR oxidase. The series is described as follows: Effect of inhibitors on the oxidation of IPdR to IUdR by liver homogenate. In kind it is biochemical, rat. The note with it: for IC50: liver homogenate, read-out: IC50 (concentration at 50% inhibition of the conversion of IPdR to IUdR); for product inhibition: at 50 mM. The protocol: (§1) Rat hepatic tissue was washed with ice-cold 1.15% KCl and blotted dry. The tissue was then homogenized with a tissue homogenizer, in a volume of 1.15% KCl that was 3 times the tissue weight, to form a 25% (w/v) homogenate. The homogenate was then centrifuged at 10,000 g for 10 minutes at 4° C. The resulting supernatant was filtered through Miracloth (similar to cheese cloth) then dialyzed overnight against 50 mM Tris-HCl buffer pH 7.5 and stored at -80° C. before use. Rat hepatocytes were obtained by a perfusion technique then the cells were extracted with 10 mM phosphate buffer, pH 7.5, containing 1M KCl and dialyzed for 4 hours against 50 mM Tris-HCl buffer pH 7.5.
(§2) For the standard assay condition, the reaction mixture contained 50 mM Tris-HCl, pH 7.5, 1 mM EDTA, 180 μM of IPdR (or its analogs) and approximately 0.01 mg protein of 10,000 g supernatant of tissue homogenate in a final volume of 500 μl and the incubation was at 37° C. for 10 minutes unless specified otherwise. 300 μl of reaction mixture was removed at the end of incubation and mixed with 630 μl acetonitrile then agitated. The precipitated protein were removed by centrifugation and the supernatant was lyophilized to dryness. The samples were reconstituted to the original aliquot volume with the HPLC mobile phase buffer and analyzed on a Alltech RP-18 column. IPdR, IUdR and IU were detected at a UV absorption wavelength of 230 nm, and IPdR was also detected at a UV absorption wavelength of 335 nm. The mobile phase was 10% acetonitrile/90%mM ammonium acetate, pH 6.8 and the flow rate was 1 ml/minute. Standard curves of IPdR and IUdR were established from the integration value of known concentrations.

Series [2] has as its system aldehyde oxidase. The series is described as follows: Substrate specificity of the conversion of RPdR to RUdR. It counts as in vitro ADME, rat. To be noted: for Conversion of RPdR to RUdR / Products of the reaction: substrate 180 μM; for Conversion of RPdR to RUdR: 2 to 4 separate experiments, in nmol/mg/min. The protocol:
as §1, §2
(§3) Several 2-pyrimidinone deoxyribose analogs were examined for the conversion to their deoxyuridine counterparts. […] Nevertheless the relative Vmax for IPdR in the reaction at pH 7.5 and pH 9.5 is the same. […] The synthetic substrates for aldehyde oxidase appear to be better than its natural substrates, N^1 -methylnicotinamide and acetaldehyde, as judged by the potency of inhibition of N^1 -methylnicotinamide and acetaldehyde to the IPdR oxidation reaction (Table IV). The rate of reactivity of the liver enzyme with different IPdR analogs follows the order EPdR, IP, IPdR, 5-bromo-2-pyrimidinone deoxyribose (BPdR) and 5-methyl-2-pyrimidinone deoxyribose (MPdR) or 5-ethyl-2-pyrimidinone deoxyribose (EtPdR) (Table V). Electronegative substituents in the 5-position seemed to increase the substrate activity in this oxidation reaction.
Substrate specificity of the conversion of […]

For series [3] the following is noted: cited from earlier work; for catabolism to the free base: followed by dehalogenation; for cytotoxicity limiting effective use as radiosensitizer: in vivo.
Series [4] can be described thus: Michaelis constant / Vmax of 2-pyrimidinone deoxyribose analogs with the liver enzyme. The note with it: rat, liver aldehyde oxidase. It counts as biochemical, rat. The method, then: as §1, §2, §3
Another series has as its system colon 38 cells. As to the kind of experiment: Colon 38 tumor weight in mice. The note with it: FU 25 and 50, FP 50 and 100 mg/kg daily oral. It counts as in vivo, mouse. The protocol: Mice were injected with colon 38 cells and were either not treated or treated with daily treatments of 25 and 50 mg/kg FU and 50 and 100 mg/kg FP were given orally to the mice and the change in tumor weight was measured over time.

Another series concerns BDF1 mice. As to the kind of experiment: Toxicity of FU and FP in BDF1 mice. In kind it is in vivo. To be noted: Day 1,2,3,4,5. The method, then:
(§4) BDF1 mice were administered daily oral dosages of either 50, 75 or 100 mg/kg of FU or 100, 150 or 200 mg/kg of FP. The survival rates of each are presented in chart and graphic forms in Table VI and FIGS. 2 and 3.

Series [5] can be described thus: Toxicity of FU and FP in BDF1 mice. It counts as in vivo. To be noted: mouse, in vivo, po, daily, Day 1,2,3,4,5. The method, then:
as §4

A further series has as its system P388-R leukemia cells. As to the kind of experiment: Survival time of mice bearing P388-R leukemia cells. In kind it is in vivo, mouse. To be noted: daily on Day 1,2,3,4,5. The method, then:
Mice were injected with 100,000 P388-R leukemia cells to induce a leukemia. These cells were resistant to Adriamycin. Daily treatments of 25 and 50 mg/kg FU and 50 and 100 mg/kg FP were given orally to these leukemic mice and the duration of survival was measured. The results are given in tabular and graphic form in Table VII and FIG. 4.
Inoculum: 10^6 P388R cells into each mouse (i.p.)

Series [6] concerns metastatic prostate cancer. The note with it: cited from earlier work.

Turning to `O[C@H](CS)[C@H](O)CS` (racemic) [Dithiothreitol], in the series on aldehyde oxidase [1] (literature), the “inhibition of aldehyde oxidase activity” value is recorded as “could be inhibited”. Moreover, the IC50 on IPdR oxidase stood at 100 µM.
On to `CCCCS` [1-Butane thiol], for which, in the series with IPdR oxidase, the product inhibition result is on record as “Approximately 25%” and the IC50 is greater than 50000 µM.
In the case of `CC=O` [Acetaldehyde], the “inhibition of aldehyde oxidase activity” value in the series with aldehyde oxidase [1] (literature) is listed as “inhibited by acetaldehyde”. The IC50 on IPdR oxidase is 5000 µM.
Take `O=c1ncc(Br)cn1[C@H]1C[C@H](O)[C@@H](CO)O1` [BPdR, 5-bromo-2-pyrimidinone-deoxyribose]: the “Conversion of RPdR to RUdR” value in the series on aldehyde oxidase [2] turned out to be 7 ± 2.
With `O=c1[nH]c(=O)n([C@H]2C[C@H](O)[C@@H](CO)O2)cc1Br` [BUdR, 5-bromo-deoxyuridine], in [3], the “catabolism to the free base” value is given as “rapid catabolism” and the “cytotoxicity limiting effective use as radiosensitizer” value is on record as “limited by their cytotoxicity”.
As to `N[C@@H](CS)C(=O)O` [Cysteine], in the series on aldehyde oxidase [1] (at 5 mM), the “inhibition of aldehyde oxidase activity” value is “no significant inhibition”. The “inhibition of aldehyde oxidase activity” value with aldehyde oxidase [1] (at 50 mM) is reported as “potent inhibition”. For the same compound, in the series with IPdR oxidase, the product inhibition result is listed as “Approximately 40%” and the IC50 was greater than 50000 µM.
`C#Cc1cnc(=O)n([C@H]2C[C@H](O)[C@@H](CO)O2)c1` [EPdR, 5-ethynyl-2-pyrimidinone-deoxyribose]: the “Conversion of RPdR to RUdR” value in the series with aldehyde oxidase [2] is on record as 20 ± 4. Further, the results for the Km in [4] (pH 7.5) and in series [4] (pH 9.5) were 77 µM and 46 µM, respectively.
As for `CCc1cnc(=O)n([C@H]2C[C@H](O)[C@@H](CO)O2)c1` [EtPdR, 5-ethyl-2-pyrimidinone-deoxyribose], in the series with aldehyde oxidase [2], the “Products of the reaction” value is recorded as “not detected” and the “Conversion of RPdR to RUdR” value was less than 0.1.
In the case of `O=c1[nH]cc(F)c(=O)[nH]1` [FU, 5-fluoro uracil, reference compound], the “reduction in tumor size or reduction in its growth rate, FU versus FP” value in the series on colon 38 cells was “comparable between FU and FP”. The Death/Total in the series with BDF1 mice (50 mg/kg p.o.) is listed as 5/5; in the series on BDF1 mice (75 mg/kg p.o.), 2/5; in the series with BDF1 mice (100 mg/kg p.o.), 1/5. In series [5], this compound came in with a 50% lethal dose (LD50) of 70 mg/kg. In addition, the Cures/Total in the series on P388-R leukemia cells (25 mg/kg oral) and in the series on P388-R leukemia cells (50 mg/kg oral) was 0/5 throughout. Besides, the “ILS (increase in life span over controls)” value in the series on P388-R leukemia cells (25 mg/kg oral) was determined as 5%; with P388-R leukemia cells (50 mg/kg oral), 25%.
Turning to `OO` [Hydrogen peroxide], the IC50 on IPdR oxidase came out at 10000 µM.
For `NO` [Hydroxyl amine], the IC50 at IPdR oxidase was found to be 1000 µM.
Consider `O=c1ncc(I)c[nH]1` [IP, 5-iodo-2-pyrimidinone], for which, in the series on aldehyde oxidase [2] (in words), the “substrate quality for aldehyde oxidase” value was “excellent substrate”. Also, in the series with aldehyde oxidase [2], the “Conversion of RPdR to RUdR” value is recorded as 18 ± 3.
In the case of `O=c1[nH]c(=O)n([C@H]2C[C@H](O)[C@@H](CO)O2)cc1I` [IUdR, iodo-deoxyuridine], in series [3], the “catabolism to the free base” value is “rapid catabolism” and the “cytotoxicity limiting effective use as radiosensitizer” value is on record as “limited by their cytotoxicity”. Also, in series [3] (systemic use), the “systemic toxicity limiting clinical usage” value is listed as “limited its clinical usage”.
With `Cc1cnc(=O)n([C@H]2C[C@H](O)[C@@H](CO)O2)c1` [MPdR, 5-methyl-2-pyrimidinone-deoxyribose], in the series on aldehyde oxidase [2], the “Products of the reaction” value is given as “not detected” and the “Conversion of RPdR to RUdR” value is on record as less than 0.1.
Consider `OCCS` [Mercaptoethanol, 2-mercaptoethanol], for which, in the series on aldehyde oxidase [1] (literature), the “inhibition of aldehyde oxidase activity” value is reported as “could be inhibited”. In addition, the IC50 on IPdR oxidase is 1800 µM.
Consider `C[n+]1cccc(C(N)=O)c1` [N^1 -methylnicotinamide], for which, in the series on aldehyde oxidase [1] (to N1-methyl-2-pyridone-5-carboxamide and N1-methyl-4-pyridone-3-carboxamide), the “conversion by hepatic aldehyde oxidase” value is on record as “converts N^1 -methylnicotinamide”. Moreover, the IC50 on IPdR oxidase was 1000 µM.
`CCCC(C(=O)OCCN(CC)CC)(c1ccccc1)c1ccccc1` [SKF-525A]: the IC50 at IPdR oxidase is 30 µM.
Turning to `NC(CO)(CO)CO` [Tris buffer], in the series with aldehyde oxidase [1] (literature), the “stimulation of aldehyde oxidase activity” value was “stimulated by potassium ferricyanide and Tris buffer”.
Regarding `Cc1ccc(C(=O)Nc2ccc(S(=O)(=O)O)c3cc(S(=O)(=O)O)cc(S(=O)(=O)O)c23)cc1NC(=O)c1cccc(NC(=O)Nc2cccc(C(=O)Nc3cc(C(=O)Nc4ccc(S(=O)(=O)O)c5cc(S(=O)(=O)O)cc(S(=O)(=O)O)c45)ccc3C)c2)c1` [suramin], the “effectiveness of bolus dosages” value in series [6] (bolus) is given as “significantly less effective”. The “effective anti-cancer dosage relative to dosage resulting in paralysis” value in [6] (human trials, metastatic prostate cancer) was “very close to the dosage resulting in paralysis”.
